Data from publication PMC5566973 (Frontiers in Pharmacology, 2017).
“And” between values parts separate entries of the source, which are not always exact repeats. Equal values may be shown once.

Tests used:
human BCRP = target: T1, human BCRP (Homo sapiens, UniProt Q9UNQ0); experiment: Vesicular transport assay, Sf9 membrane vesicles expressing human BCRP; type: in vitro ADME; conditions: 1 μM, MgATP vs MgAMP
T1 construct: purchased GenoMembrane (Kanagawa, Japan); host or cells: Sf9
T1 sequence (Q9UNQ0 1-655): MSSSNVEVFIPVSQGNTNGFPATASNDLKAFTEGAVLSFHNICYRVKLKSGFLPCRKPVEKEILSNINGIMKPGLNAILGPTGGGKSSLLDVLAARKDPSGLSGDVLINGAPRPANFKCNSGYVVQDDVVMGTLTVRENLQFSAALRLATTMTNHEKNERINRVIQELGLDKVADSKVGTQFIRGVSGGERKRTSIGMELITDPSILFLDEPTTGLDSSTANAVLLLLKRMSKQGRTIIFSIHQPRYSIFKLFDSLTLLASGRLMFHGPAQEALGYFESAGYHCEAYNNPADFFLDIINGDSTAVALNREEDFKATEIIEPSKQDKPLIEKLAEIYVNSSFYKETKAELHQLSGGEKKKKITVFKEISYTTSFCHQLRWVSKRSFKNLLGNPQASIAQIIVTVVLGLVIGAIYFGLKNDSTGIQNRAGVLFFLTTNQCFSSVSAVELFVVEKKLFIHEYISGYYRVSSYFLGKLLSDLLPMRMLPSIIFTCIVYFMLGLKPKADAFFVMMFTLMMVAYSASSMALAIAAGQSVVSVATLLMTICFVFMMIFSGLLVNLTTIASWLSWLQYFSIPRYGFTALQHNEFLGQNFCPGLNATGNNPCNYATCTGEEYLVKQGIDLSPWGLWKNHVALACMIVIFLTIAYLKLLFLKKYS
Protocol: (§1) The vesicular transport assay was implemented as described in the GenoMembrane™ vesicular transport kit protocol (GenoMembrane, Kanagawa, Japan) with minor changes. Briefly, vesicle stocks were thawed and diluted with assay buffer (50 mM MOPS-Tris, 70 mM KCl, and 7.5 mM MgCl2). […] MgAMP instead of MgATP was used as a control. Apart from these, 4 mM glutathione was also included in BCRP and MRP2 assays. Transport was terminated with ice cold assay buffer, and then samples were quickly transferred to a filter plate. Wells were immediately washed 5 times with 200 μL assay buffer and dried. The vesicles on the plate were dissolved in 50 μL of 80% methanol and centrifuged at 2,000 rpm for 2 min after collection, and repeating the above procedures. Mixed the two filtrates together and added the pre-cooled methanol. After centrifugation at 12,000 rpm for 5 min at 4°C, a 5 μL aliquot of supernatant was injected into the UPLC-ESI-MS/MS system for analysis. Furthermore, the uptake of NMQ (MDR1), LY (BCRP), and E217βG (MRP2) was used to evaluate the activity of specific vesicles.

human MRP2 = target: T2, human MRP2 (Homo sapiens, UniProt Q92887); experiment: Vesicular transport assay, Sf9 membrane vesicles expressing human MRP2; type: in vitro ADME; conditions: 1 μM, MgATP vs MgAMP
T2 construct: purchased GenoMembrane (Kanagawa, Japan); host or cells: Sf9
T2 sequence (Q92887 whole entry): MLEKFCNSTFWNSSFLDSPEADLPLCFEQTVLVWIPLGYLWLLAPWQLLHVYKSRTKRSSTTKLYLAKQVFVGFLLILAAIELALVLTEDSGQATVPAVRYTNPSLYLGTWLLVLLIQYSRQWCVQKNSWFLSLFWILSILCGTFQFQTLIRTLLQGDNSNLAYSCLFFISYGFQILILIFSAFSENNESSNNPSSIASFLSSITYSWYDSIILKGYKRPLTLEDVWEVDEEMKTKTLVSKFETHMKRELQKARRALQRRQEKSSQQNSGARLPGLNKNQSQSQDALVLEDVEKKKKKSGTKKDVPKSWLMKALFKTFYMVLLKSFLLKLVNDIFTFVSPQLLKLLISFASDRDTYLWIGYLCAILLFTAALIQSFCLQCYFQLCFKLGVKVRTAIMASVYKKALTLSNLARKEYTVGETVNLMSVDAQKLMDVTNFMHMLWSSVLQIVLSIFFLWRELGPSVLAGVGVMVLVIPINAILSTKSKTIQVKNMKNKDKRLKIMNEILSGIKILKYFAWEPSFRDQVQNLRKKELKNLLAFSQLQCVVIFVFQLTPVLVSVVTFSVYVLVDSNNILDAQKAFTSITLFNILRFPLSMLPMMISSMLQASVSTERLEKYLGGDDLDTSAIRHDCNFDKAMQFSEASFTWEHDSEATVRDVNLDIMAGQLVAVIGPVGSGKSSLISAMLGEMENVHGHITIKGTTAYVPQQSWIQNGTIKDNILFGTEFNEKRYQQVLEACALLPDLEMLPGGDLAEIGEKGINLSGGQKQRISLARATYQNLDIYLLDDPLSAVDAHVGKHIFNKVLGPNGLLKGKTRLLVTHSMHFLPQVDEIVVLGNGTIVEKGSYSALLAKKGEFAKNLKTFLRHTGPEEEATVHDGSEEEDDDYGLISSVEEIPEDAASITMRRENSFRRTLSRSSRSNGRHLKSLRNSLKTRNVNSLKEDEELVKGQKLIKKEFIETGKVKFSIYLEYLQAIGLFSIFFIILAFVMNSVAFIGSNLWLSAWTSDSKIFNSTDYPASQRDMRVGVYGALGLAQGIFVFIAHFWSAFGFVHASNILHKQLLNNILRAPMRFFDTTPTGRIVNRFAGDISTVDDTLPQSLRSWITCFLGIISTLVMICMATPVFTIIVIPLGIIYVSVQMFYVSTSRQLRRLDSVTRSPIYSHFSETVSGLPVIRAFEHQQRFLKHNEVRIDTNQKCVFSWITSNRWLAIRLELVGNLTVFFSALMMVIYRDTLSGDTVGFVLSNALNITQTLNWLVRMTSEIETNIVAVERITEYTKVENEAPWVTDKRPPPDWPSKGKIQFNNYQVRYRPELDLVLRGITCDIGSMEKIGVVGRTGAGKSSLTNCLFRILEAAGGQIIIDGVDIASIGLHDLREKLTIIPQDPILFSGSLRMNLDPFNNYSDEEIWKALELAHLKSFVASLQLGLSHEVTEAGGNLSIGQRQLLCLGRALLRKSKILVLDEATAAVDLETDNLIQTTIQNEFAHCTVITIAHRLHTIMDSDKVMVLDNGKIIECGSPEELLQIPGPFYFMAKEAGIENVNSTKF
Protocol: as §1

human MDR1 = target: T3, human MDR1 (Homo sapiens, UniProt P08183); experiment: Vesicular transport assay, Sf9 membrane vesicles expressing human MDR1; type: in vitro ADME; conditions: 1 μM, MgATP vs MgAMP
T3 construct: purchased GenoMembrane (Kanagawa, Japan); host or cells: Sf9
T3 sequence (P08183 whole entry): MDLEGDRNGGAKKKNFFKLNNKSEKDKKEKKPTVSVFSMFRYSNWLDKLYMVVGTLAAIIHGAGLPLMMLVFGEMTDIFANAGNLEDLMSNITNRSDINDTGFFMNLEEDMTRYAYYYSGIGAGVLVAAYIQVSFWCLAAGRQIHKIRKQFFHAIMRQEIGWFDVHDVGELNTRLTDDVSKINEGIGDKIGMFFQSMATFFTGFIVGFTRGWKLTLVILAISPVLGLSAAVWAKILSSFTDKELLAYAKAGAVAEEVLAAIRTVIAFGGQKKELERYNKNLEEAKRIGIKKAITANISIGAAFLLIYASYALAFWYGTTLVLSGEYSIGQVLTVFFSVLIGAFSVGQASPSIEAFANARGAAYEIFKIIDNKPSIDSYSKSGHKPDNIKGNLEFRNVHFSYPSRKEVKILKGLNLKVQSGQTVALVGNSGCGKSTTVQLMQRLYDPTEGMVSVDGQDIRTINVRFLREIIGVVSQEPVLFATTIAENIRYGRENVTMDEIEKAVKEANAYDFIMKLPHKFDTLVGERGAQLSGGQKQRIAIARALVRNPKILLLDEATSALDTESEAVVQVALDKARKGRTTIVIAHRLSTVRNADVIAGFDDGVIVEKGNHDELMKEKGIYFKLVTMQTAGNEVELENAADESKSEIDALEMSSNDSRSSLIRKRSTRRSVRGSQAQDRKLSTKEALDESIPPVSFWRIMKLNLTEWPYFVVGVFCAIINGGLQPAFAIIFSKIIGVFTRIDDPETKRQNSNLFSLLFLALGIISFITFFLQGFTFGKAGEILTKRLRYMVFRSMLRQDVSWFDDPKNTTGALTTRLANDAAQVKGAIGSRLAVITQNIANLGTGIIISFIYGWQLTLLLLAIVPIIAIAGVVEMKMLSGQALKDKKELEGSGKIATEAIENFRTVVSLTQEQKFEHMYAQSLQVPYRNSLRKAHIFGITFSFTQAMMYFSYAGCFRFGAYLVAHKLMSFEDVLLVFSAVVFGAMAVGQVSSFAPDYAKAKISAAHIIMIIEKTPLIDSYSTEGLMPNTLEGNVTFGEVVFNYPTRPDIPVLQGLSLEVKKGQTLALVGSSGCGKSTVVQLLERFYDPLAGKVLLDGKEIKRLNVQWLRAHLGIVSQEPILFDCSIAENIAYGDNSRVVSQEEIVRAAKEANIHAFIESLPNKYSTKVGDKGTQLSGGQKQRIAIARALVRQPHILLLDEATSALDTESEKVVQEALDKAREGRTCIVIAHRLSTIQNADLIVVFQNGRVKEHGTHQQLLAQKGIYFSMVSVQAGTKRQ
Protocol: as §1

[1] = set-up: method as in Wu et al., 2009; conditions: wild-type and CYP2D6-humanized mice, intraperitoneal injection, 5 or 15 mg/kg; ref Wu et al., 2009; cited from earlier work
SGLT1 = experiment: in vitro; conditions: human, Caco-2, ER, Caco-2, 2 μM, + Phloridzin 0.5 mM (SGLT1)
OCTs/OCTNs = experiment: in vitro; conditions: human, Caco-2, ER, Caco-2, 2 μM, + TEA 5 mM (OCTs/OCTNs)
MCTs = experiment: in vitro; conditions: human, Caco-2, ER, Caco-2, 2 μM, + Phloretin 0.3 mM (MCTs)

## COc1ccc2c3c([nH]c2c1)C(C)=NCC3 [Harmaline]
Human BCRP
  uptake ratio (UR): < 2.00 and 1.42
Human MRP2
  uptake ratio (UR): < 2.00 and 1.35
Human MDR1
  uptake ratio (UR): < 2.00 and 1.97
[1]
  F-values: 73.7% and 98.2% and 68.6% and 60.0%
SGLT1
  efflux ratio: 0.95
OCTs/OCTNs
  efflux ratio: 1.13
MCTs
  efflux ratio: 0.95
